Experimental findings from patent publication US10183936B2, “Hepatitis B core protein allosteric modulators” (priority 2014, dated 2019) are described below.

The test system of series [1] is HBV viral production in AD38 cells. Put plainly: Viral load production in AD38 cells by quantitative PCR of the HBV core sequence in supernatant. The class given is cell-based. The note with it: Hepatitis B virus, 144 h; 10 μM compound, 6 days at 37° C., viral load in supernatant compared against DMSO control wells; read-out: AD38 Viral Load (CpAM/DMSO %) at 10 μM. The method, boiled down: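 Read-out is TaqMan qPCR of the HBV core region in supernatant, quantitated against standards and referenced to DMSO controls (≥3 per plate). Cells: AD38 at 50,000/well, exposed to compound (added as 10× stock in 10% DMSO) for 6 days at 37° C.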

For the next series, the system named is AD38 cells. The series can be described thus: Viability of AD38 cells (Promega CellTiter-Glo) at the end of compound treatment. The series is classed as cell-based. The following applies: 10 μM compound, 6 days, luminescence normalized against DMSO control wells (controls being 100%). A digest of the protocol: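 Luminescent CellTiter-Glo read-out, taken after supernatant was swapped for tetracycline-free 2% FBS medium with 1% DMSO, gave percent viability relative to DMSO controls set at 100%. Cells were plated at 50,000/well and exposed to compound, added as a 10× stock in 10% DMSO, for 6 days at 37° C.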
In general terms: ATP-based viability assays read luminescence as a measure of living cells.

Take `O=C(NCCc1ccccn1)c1ccc2c(c1)NC(=O)c1ccccc1N2Cc1ccccc1` [Compound 1474]: in series [1], the activity at 10 µM was 51%. Besides, the “AD38 Viability Normalized Result (CPAM/DMSO %) at 10 μM” value in the series with AD38 cells is 101%.

For `O=C(NCCc1cnco1)c1ccc2c(c1)NC(=O)c1ccccc1S2` [Compound 1246], the activity at 10 µM in series [1] turned out to be 6%. Also, the “AD38 Viability Normalized Result (CPAM/DMSO %) at 10 μM” value in the series on AD38 cells is given as 96%.

As to `O=C(Nc1cccc(-c2cncnc2)c1)c1ccc2c(c1)NC(=O)c1cc(F)ccc1S2` [Compound 1440], the activity at 10 µM in series [1] is 71%. Also, the “AD38 Viability Normalized Result (CPAM/DMSO %) at 10 μM” value with AD38 cells turned out to be 91%.

On to `O=C(CCC1CCCCC1)Nc1ccc2c(c1)NC(=O)c1ccccc1S2` [Compound 1207], for which the activity at 10 µM in series [1] came to 24%. The “AD38 Viability Normalized Result (CPAM/DMSO %) at 10 μM” value in the series on AD38 cells was 99%.

Regarding `O=C(NCCc1ccccn1)c1ccc2c(c1)NC(=O)c1ccccc1[S+]2[O-]` (stereo not drawn) [Compound 1374], the activity at 10 µM in series [1] turned out to be 1%. Besides, the “AD38 Viability Normalized Result (CPAM/DMSO %) at 10 μM” value with AD38 cells was found to be 98%.

For the compound `CCc1ncc(CNC(=O)c2ccc3c(c2)NC(=O)c2ccccc2S3)s1` [Compound 1604], the activity at 10 µM in series [1] is 0%. In addition, the “AD38 Viability Normalized Result (CPAM/DMSO %) at 10 μM” value in the series with AD38 cells stood at 105%.

Consider `CCc1ncsc1CNC(=O)c1ccc2c(c1)NC(=O)c1ccccc1S2` [Compound 1631], for which the activity at 10 µM in series [1] was determined as 9%. Further, the “AD38 Viability Normalized Result (CPAM/DMSO %) at 10 μM” value in the series with AD38 cells is listed as 112%.

On to `COC(=O)c1ccccc1-c1cccc(NC(=O)c2ccc3c(c2)NC(=O)c2cc(F)ccc2S3)c1` [Compound 1436, Methyl 3′-(2-fluoro-11-oxo-10, 11-dihydrodibenzo [b,f] [1,4]thiazepine-8-carboxamido)-[1, 1′-biphenyl]-2-carboxylate], for which the activity at 10 µM in series [1] worked out at 10%. The “AD38 Viability Normalized Result (CPAM/DMSO %) at 10 μM” value in the series with AD38 cells came out at 104%.

For the compound `O=C(NCCc1ccccc1)c1ccc2c(c1)NC(=O)c1ccccc1S2` [Compound 1104], the activity at 10 µM in series [1] amounted to 1%. Also, the “AD38 Viability Normalized Result (CPAM/DMSO %) at 10 μM” value with AD38 cells is on record as 85%.

As to `O=C(NCc1cncnc1)c1ccc2c(c1)NC(=O)c1ccccc1S2(=O)=O` [Compound 1446], in series [1], the activity at 10 µM is 3%. Further, the “AD38 Viability Normalized Result (CPAM/DMSO %) at 10 μM” value in the series with AD38 cells amounted to 84%.

Consider `O=C(NCc1ccc(O)cc1)c1ccc2c(c1)NC(=O)c1ccccc1S2` [Compound 1196], for which the activity at 10 µM in series [1] is 2%. For the same compound, the “AD38 Viability Normalized Result (CPAM/DMSO %) at 10 μM” value in the series with AD38 cells is reported as 95%.

With `O=C1Nc2cc(S(=O)(=O)Nc3ccc(Cl)cc3F)ccc2Sc2ccccc21` [Compound 1544], the activity at 10 µM in series [1] was 40%. In addition, the “AD38 Viability Normalized Result (CPAM/DMSO %) at 10 μM” value in the series with AD38 cells came out at 97%.

On to `O=C(Nc1cncs1)c1ccc2c(c1)NC(=O)c1cc(F)ccc1S2` [Compound 1335], for which the activity at 10 µM in series [1] amounted to 87%. Also, the “AD38 Viability Normalized Result (CPAM/DMSO %) at 10 μM” value in the series with AD38 cells is 104%.

`O=C(Nc1cccc(-c2ccccc2)c1)c1cc2c(cc1F)Sc1ccccc1C(=O)N2` [Compound 1509]: in series [1], the activity at 10 µM amounted to 15%. Also, the “AD38 Viability Normalized Result (CPAM/DMSO %) at 10 μM” value in the series with AD38 cells came to 29%.

For `Cl.O=C(NCC1CCNCC1)c1ccc2c(c1)NC(=O)c1ccccc1S2` [Compound 1609, 11-oxo-N-(piperidin-4-ylmethyl)-10, 11-dihydrodibenzo [b,f] [1,4] thiazepine-8-carboxamide hydrochloride], the activity at 10 µM in series [1] turned out to be 68%. Besides, in the series with AD38 cells, the “AD38 Viability Normalized Result (CPAM/DMSO %) at 10 μM” value was 99%.

In the case of `Cc1c(C(=O)NCCc2cncs2)ccc2c1NC(=O)c1ccccc1S2` [Compound 1561], the activity at 10 µM in series [1] is 8%. Also, in the series on AD38 cells, the “AD38 Viability Normalized Result (CPAM/DMSO %) at 10 μM” value is given as 118%.

Take `O=C(Nc1cccc(-c2cnco2)c1)c1ccc2c(c1)NC(=O)c1cc(F)ccc1S2` [Compound 1386]: in series [1], the activity at 10 µM turned out to be 61%. For the same compound, the “AD38 Viability Normalized Result (CPAM/DMSO %) at 10 μM” value in the series with AD38 cells amounted to 95%.

As for `O=C(NCCc1cncnc1)c1cc2c(cc1F)Sc1ccccc1C(=O)N2` [Compound 1411], the activity at 10 µM in series [1] was 66%. Further, the “AD38 Viability Normalized Result (CPAM/DMSO %) at 10 μM” value in the series with AD38 cells is listed as 91%.
